The inhibition is the relative decrease from the control value, in per cent. A word on the EC50: it is the concentration that produces a half-maximal response.

SMILES strings stand for the structures. Like-named read-outs stand apart in the source and are kept apart here.

From US6346529B1, “Antiviral therapy using thiazine dyes” (Oklahoma Medical Research Foundation, priority 1988, dated 2002) come the findings set out here.

For test [1], the system named is nucleosides of adenine, cytosine, thymine, and guanine. Kind of test: Methylene blue plus light treatment of nucleosides (HPLC). It is filed as biochemical. As to conditions: methylene blue plus light 15 min. As for the experimental part: The nucleosides of adenine, cytosine, thymine, and guanine (approximately 200 nmoles each) were also subjected to methylene blue (20 μl into 2.0 mls final total volume) plus light treatment (100 watt incandescent light 11 cm over solution for 15 min).

The subject of the next test is HIV (LAV-I). The test is described as follows: HIV in human PBMC, P24 levels by EIA. As to conditions: for inhibition at 0.001 µM / inhibition at 0.01 µM / inhibition at 1 µM / inhibition at 10 µM / inhibition at 0.1 µM / EC50: Human immunodeficiency virus 1, PBMC. It is filed as cell-based. How it is done:
While the previous example measured RT activity, the present example utilizes a direct quantitation of a viral protein (P24) as an indicator of antiviral effectiveness.
Peripheral blood mononuclear (PBM) cells were infected with HIV and treated with methylene blue as described above. The EC50 levels were calculated from enzyme immuno-assay (EIA) measurements of viral coat protein P24. The P24-specific EIA kit was purchased from Abbott Labs.

Take `CN(C)c1ccc2nc3ccc(N(C)C)cc3[s+]c2c1.[Cl-]` [MB, 3,7-Bis(dimethylamino)phenothiazin-5-ium chloride]: the “formation of hydroxylated derivative from nucleosides” value in test [1] is recorded as “Only deoxyguanosine reacted to form the hydroxylated derivative”. For the same molecule, the “ng P24/ml” value in the test on HIV (LAV-I) (Dark, 0.001 μM) worked out at 356.0 ng P24/ml; in the test on HIV (LAV-I) (Dark, 0.01 μM) it was 270.2 ng P24/ml; with HIV (LAV-I) (Dark, 1 μM) it was 84.1 ng P24/ml; in the test with HIV (LAV-I) (Dark, 10 μM), 5.4 ng P24/ml; with HIV (LAV-I) (Dark, .1 μM), 287.2 ng P24/ml; in the test on HIV (LAV-I) (Light, 0.001 μM), 370.5 ng P24/ml. In addition, the “ng P24/ml” value with HIV (LAV-I) (Light, 0.01 μM) is reported as 370.5 ng P24/ml; in the test with HIV (LAV-I) (Light, 1 μM), 5.1 ng P24/ml; in the test with HIV (LAV-I) (Light, 10 μM), 2.2 ng P24/ml; in the test on HIV (LAV-I) (Light, .1 μM), 302.2 ng P24/ml. For the same molecule, the inhibition at 0.001 µM in the test with HIV (LAV-I) (read-out: % Inhibition (corrected), Dark, 0.001 μM) was 0.8%; in the test with HIV (LAV-I) (read-out: % Inhibition (corrected), Light, 0.001 μM) it was -3.2%. In addition, the inhibition at 0.01 µM with HIV (LAV-I) (read-out: % Inhibition (corrected), Dark, 0.01 μM) was 24.7%; in the test with HIV (LAV-I) (read-out: % Inhibition (corrected), Light, 0.01 μM), -3.2%. In addition, the inhibition at 1 µM in the test with HIV (LAV-I) (read-out: % Inhibition (corrected), Dark, 1 μM) worked out at 76.6%; in the test on HIV (LAV-I) (read-out: % Inhibition (corrected), Light, 1 μM), 98.6%. Besides, the inhibition at 10 µM in the test on HIV (LAV-I) (read-out: % Inhibition (corrected), Dark, 10 μM) was found to be 98.5%; in the test with HIV (LAV-I) (read-out: % Inhibition (corrected), Light, 10 μM), 99.4%. The inhibition at 0.1 µM with HIV (LAV-I) (read-out: % Inhibition (corrected), Dark, .1 μM) came to 20%; in the test with HIV (LAV-I) (read-out: % Inhibition (corrected), Light, .1 μM), 15.8%. Further, the EC50 is 330 nM in the test on HIV (LAV-I) (read-out: EC50 (P24), Dark) and 24 nM with HIV (LAV-I) (read-out: EC50 (P24), Light).
